Assays:
A549 = assay: Cytotoxic activity against human lung cancer A549 cell line was determined; type: functional; conditions: read-out: ED50 (the source's name)
Cancer cell lines = assay: Average cytotoxic activity (AC) in three cancer cell lines A549, SK-MEL-2 and MCF-7 was calculated; type: functional, Homo sapiens; set-up: unit not given beside the values
MCF7 = assay: Cytotoxic activity against human breast cancer MCF-7 cell line was determined; type: functional; conditions: read-out: ED50 (the source's name)
SK-MEL-2 = assay: Cytotoxic activity against human melanoma SK-MEL-2 was determined; type: functional; conditions: read-out: ED50 (the source's name)

SMILES | EC50 (A549) | AC (Cancer cell lines) | EC50 (MCF7) | EC50 (SK-MEL-2)
COc1cc(-n2c(-c3ccc4c(c3)OCO4)coc2=O)cc(OC)c1OC | 64.5 nM | 64.5 | 64.5 nM | 64.5 nM
COc1ccc(C2=C(c3cc(OC)c(OC)c(OC)c3)C(=O)OC2)cc1O | 16.3 nM | 12.6 | 11.4 nM | 10.2 nM
COc1cc(C2=C(c3ccc(N)cc3)COC2=O)cc(OC)c1OC | 54.7 nM | 45.7 | 33 nM | 49.3 nM
COc1cc(C2=C(c3ccc4c(c3)OCO4)COC2=O)cc(OC)c1OC | 100 nM | 83.8 | 80.4 nM | 70.8 nM
COc1ccccc1C1=C(c2cc(OC)c(OC)c(OC)c2)C(=O)OC1 | > 5000 nM | >5000 | > 5000 nM | > 5000 nM
COc1cc([C@@H]2c3cc4c(cc3C[C@H]3COC(=O)[C@@H]32)OCO4)cc(OC)c1OC [DESOXYPODOPHYLLOTOXIN] | 15.5 nM | 11.9 | 11.7 nM | 8.4 nM

Source: ChEMBL document CHEMBL1135215, “Synthesis and cytotoxicity of 3,4-diaryl-2(5H)-furanones” (2002)
